Measurements from patent publication US20100267561A1, “HERBICIDAL PYRIDAZINONE DERIVATIVES” (priority 2007, published 2010).

Legend:
Format in all cases: in vivo
[1] = system: wheat (Triticum aestivum); assay: Test A pre-/postemergence plant response
Summary of the method: (§1)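 Ratings are visual, 0–100, where 100 means complete control and 0 no effect, taken roughly 10 days after treatment by comparison with untreated controls. Formulation: non-phytotoxic solvent mixture with surfactant.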

[2] = system: pigweed (Amaranthus retroflexus); assay: Test A pre-/postemergence plant response
Summary of the method: as §1

[3] = system: wild oat (Avena fatua); assay: Test C pre-/postemergence plant response
Summary of the method: (§2)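 Both preemergence (to planted seed) and postemergence (to plants 2–18 cm high, 1- to 4-leaf) applications used test chemicals in a non-phytotoxic solvent mixture containing surfactant. Evaluation: visual comparison with controls after 15 to 25 days; 0 means no effect, 100 complete control.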

[4] = system: winter wheat (Triticum aestivum); assay: Test C pre-/postemergence plant response
Summary of the method: as §2

[5] = system: annual bluegrass (Poa annua); assay: Test C pre-/postemergence plant response
Summary of the method: as §2

[6] = system: spring barley (Hordeum vulgare); assay: Test C pre-/postemergence plant response
Summary of the method: as §2

[7] = system: green foxtail (Setaria viridis); assay: Test C pre-/postemergence plant response
Summary of the method: as §2

[8] = system: Italian ryegrass (Lolium multiflorum); assay: Test C pre-/postemergence plant response
Summary of the method: as §2

[9] = system: canarygrass (Phalaris minor); assay: Test C pre-/postemergence plant response
Summary of the method: as §2

[10] = system: spring wheat (Triticum aestivum); assay: Test C pre-/postemergence plant response
Summary of the method: as §2

[11] = system: winter barley (Hordeum vulgare); assay: Test C pre-/postemergence plant response
Summary of the method: as §2

[12] = system: windgrass (Apera spica-venti); assay: Test C pre-/postemergence plant response
Summary of the method: as §2

[13] = system: downy bromegrass (Bromus tectorum); assay: Test C pre-/postemergence plant response
Summary of the method: as §2

[14] = system: blackgrass (Alopecurus myosuroides); assay: Test C pre-/postemergence plant response
Summary of the method: as §2

[15] = system: pigweed (Amaranthus retroflexus); assay: Test C pre-/postemergence plant response
Summary of the method: as §2

[16] = system: wild mustard (Sinapis arvensis); assay: Test C pre-/postemergence plant response
Summary of the method: as §2

[17] = Postemergence, 31 g ai/ha, 0 to 100 scale, 0 no effect, 100 complete control
[18] = Postemergence, 125 g ai/ha, 0 to 100 scale, 0 no effect, 100 complete control
[19] = Preemergence, 31 g ai/ha, 0 to 100 scale, 0 is no effect, 100 is complete control
[20] = Preemergence, 125 g ai/ha, 0 to 100 scale (0 no effect, 100 complete control)
[21] = Postemergence, 8 g ai/ha, scale 0 to 100, 0 no effect, 100 complete control
[22] = Postemergence, 16 g ai/ha, scale 0 to 100, 0 no effect, 100 complete control
[23] = Postemergence, 31 g ai/ha, scale 0 to 100, 0 no effect, 100 complete control
[24] = Postemergence, 62 g ai/ha, scale 0 to 100, 0 no effect, 100 complete control
[25] = Preemergence, 8 g ai/ha, scale 0 to 100 (0 no effect, 100 complete control)
[26] = Preemergence, 16 g ai/ha, scale 0 to 100 (0 no effect, 100 complete control)
[27] = Preemergence, 31 g ai/ha, scale 0 to 100 (0 no effect, 100 complete control)
[28] = Preemergence, 62 g ai/ha, scale 0 to 100, 0 no effect, 100 complete control

Cc1cc(-c2ccc(Cl)cc2)nn1-c1c(OC(=O)CC(C)C)cnn(C)c1=O [Compound 37]
30: Plant response rating, Wheat [1, 19] | Plant response rating, Wheat, Winter [4, 22] | Plant response rating, Windgrass [12, 24] | Plant response rating, Bromegrass, Downy [13, 22]
20: Plant response rating, Wheat [1, 17] | Plant response rating, Oat, Wild [3, 25] | Plant response rating, Oat, Wild [3, 26] | Plant response rating, Bluegrass [5, 22] | Plant response rating, Bluegrass [5, 23] | Plant response rating, Bluegrass [5, 24] | Plant response rating, Barley, Spring [6, 22] | Plant response rating, Barley, Winter [11, 27] | Plant response rating, Windgrass [12, 26] | Plant response rating, Bromegrass, Downy [13, 21]
65: Plant response rating, Blackgrass [14, 21]
15: Plant response rating, Wheat, Winter [4, 26] | Plant response rating, Barley, Spring [6, 27] | Plant response rating, Canarygrass [9, 25] | Plant response rating, Wheat, Spring [10, 21] | Plant response rating, Windgrass [12, 23]
100: Plant response rating, Barley, Spring [6, 24] | Plant response rating, Foxtail, Green [7, 22] | Plant response rating, Foxtail, Green [7, 23] | Plant response rating, Foxtail, Green [7, 24] | Plant response rating, Foxtail, Green [7, 27] | Plant response rating, Foxtail, Green [7, 28] | Plant response rating, Ryegrass, Italian [8, 23] | Plant response rating, Ryegrass, Italian [8, 24] | Plant response rating, Ryegrass, Italian [8, 28] | Plant response rating, Canarygrass [9, 24] | Plant response rating, Blackgrass [14, 23] | Plant response rating, Blackgrass [14, 24]
70: Plant response rating, Wheat [1, 18] | Plant response rating, Oat, Wild [3, 27] | Plant response rating, Bluegrass [5, 28] | Plant response rating, Bromegrass, Downy [13, 24]
80: Plant response rating, Oat, Wild [3, 22] | Plant response rating, Oat, Wild [3, 28] | Plant response rating, Ryegrass, Italian [8, 26] | Plant response rating, Canarygrass [9, 27] | Plant response rating, Windgrass [12, 28]
25: Plant response rating, Oat, Wild [3, 21] | Plant response rating, Wheat, Winter [4, 27] | Plant response rating, Barley, Winter [11, 23]
0: Plant response rating, Pigweed [2, 17] | Plant response rating, Pigweed [2, 18] | Plant response rating, Pigweed [2, 19] | Plant response rating, Pigweed [2, 20] | Plant response rating, Wheat, Winter [4, 21] | Plant response rating, Wheat, Winter [4, 25] | Plant response rating, Bluegrass [5, 21] | Plant response rating, Bluegrass [5, 25] | Plant response rating, Barley, Spring [6, 21] | Plant response rating, Barley, Spring [6, 25] | Plant response rating, Barley, Spring [6, 26] | Plant response rating, Ryegrass, Italian [8, 25] | Plant response rating, Canarygrass [9, 21] | Plant response rating, Wheat, Spring [10, 25] | Plant response rating, Wheat, Spring [10, 26] | Plant response rating, Barley, Winter [11, 25] | Plant response rating, Barley, Winter [11, 26] | Plant response rating, Windgrass [12, 21] | Plant response rating, Windgrass [12, 22] | Plant response rating, Windgrass [12, 25] | Plant response rating, Bromegrass, Downy [13, 25] | Plant response rating, Bromegrass, Downy [13, 26] | Plant response rating, Pigweed [15, 21] | Plant response rating, Pigweed [15, 22] | Plant response rating, Pigweed [15, 23] | Plant response rating, Pigweed [15, 24] | Plant response rating, Pigweed [15, 25] | Plant response rating, Pigweed [15, 26] | Plant response rating, Pigweed [15, 27] | Plant response rating, Pigweed [15, 28] | Plant response rating, Mustard, Wild [16, 21] | Plant response rating, Mustard, Wild [16, 22] | Plant response rating, Mustard, Wild [16, 23] | Plant response rating, Mustard, Wild [16, 24] | Plant response rating, Mustard, Wild [16, 25] | Plant response rating, Mustard, Wild [16, 26] | Plant response rating, Mustard, Wild [16, 27] | Plant response rating, Mustard, Wild [16, 28]
75: Plant response rating, Foxtail, Green [7, 25] | Plant response rating, Ryegrass, Italian [8, 21] | Plant response rating, Canarygrass [9, 23] | Plant response rating, Wheat, Spring [10, 23] | Plant response rating, Blackgrass [14, 26]
40: Plant response rating, Barley, Spring [6, 28] | Plant response rating, Barley, Winter [11, 28]
85: Plant response rating, Bromegrass, Downy [13, 28]
90: Plant response rating, Wheat [1, 20] | Plant response rating, Oat, Wild [3, 23] | Plant response rating, Wheat, Winter [4, 24] | Plant response rating, Wheat, Winter [4, 28] | Plant response rating, Foxtail, Green [7, 21] | Plant response rating, Foxtail, Green [7, 26] | Plant response rating, Wheat, Spring [10, 27] | Plant response rating, Blackgrass [14, 22] | Plant response rating, Blackgrass [14, 27]
60: Plant response rating, Wheat, Winter [4, 23] | Plant response rating, Bluegrass [5, 27] | Plant response rating, Canarygrass [9, 26] | Plant response rating, Windgrass [12, 27] | Plant response rating, Bromegrass, Downy [13, 27]
50: Plant response rating, Barley, Spring [6, 23] | Plant response rating, Wheat, Spring [10, 22] | Plant response rating, Bromegrass, Downy [13, 23]
10: Plant response rating, Barley, Winter [11, 21] | Plant response rating, Barley, Winter [11, 22]
95: Plant response rating, Oat, Wild [3, 24] | Plant response rating, Ryegrass, Italian [8, 22] | Plant response rating, Canarygrass [9, 28] | Plant response rating, Wheat, Spring [10, 24] | Plant response rating, Barley, Winter [11, 24]
98: Plant response rating, Ryegrass, Italian [8, 27] | Plant response rating, Wheat, Spring [10, 28] | Plant response rating, Blackgrass [14, 28]
35: Plant response rating, Bluegrass [5, 26] | Plant response rating, Canarygrass [9, 22] | Plant response rating, Blackgrass [14, 25]
